The results in this text go back to patent US5750136A, “Bioadhesive composition and patch” (priority 1995, dated 1998).

For `C[C@H]1O[C@@H](O[C@H]2[C@@H](O)C[C@H](O[C@H]3[C@@H](O)C[C@H](O[C@H]4CC[C@@]5(C)[C@H](CC[C@@H]6[C@@H]5C[C@@H](O)[C@]5(C)[C@@H](C7=CC(=O)OC7)CC[C@]65O)C4)O[C@@H]3C)O[C@@H]2C)C[C@H](O)[C@@H]1O` [digoxin], the “bioavailability of digoxin is substantial for a period” value (from patches of Examples 2-4) was “at least 24 h”. Besides, for the setting “in words, Table I”, the “delivery from bioadhesive compositions” value is listed as “delivered in a sustained fashion”.
